Results reported in patent US20260028352A1, “MACROCYCLIC IMIDAZO [1,2-B] PYRIDAZINE DERIVATIVE, PREPARATION METHOD THEREFOR, AND USE THEREOF” (SUZHOU LANGRUI BIOPHARMACEUTICAL CO., LTD., priority 2022, published 2026).

Columns and labels:
[1] = target: TRKA^WT kinase (Homo sapiens (Human), UniProt P04629); experiment: Inhibitory activity against TRKA WT kinase (Caliper mobility shift); type: biochemical; conditions: in vitro kinase assay
Experimental: Kinase Assay Process: 1× Kinase buffer was prepared. […] The compounds were serially diluted into 10 concentrations ([…], 0.15, and 0.05 nM) using a Precision 3-fold dilution method. By using the Echo550 liquid handler, 250 nL of the 100-fold final concentration compound was transferred to an OptiPlate-384F plate. a 2.5× final concentration kinase solution was prepared using 1× Kinase buffer. 10 μL of the 2.5× final concentration kinase solution was added to the compound wells and the positive control wells, and 10 μL of 1× Kinase buffer was added to the negative control wells. The plate was centrifuged at 1000 rpm for 30 seconds, vortexed for mixing, and then incubated at room temperature for 10 minutes. A mixture of 5/3× final concentration of ATP and Kinase Substrate 22 was prepared using 1× Kinase buffer. 15 μL of the mixture of the 5/3× final concentration ATP and the substrate was added to initiate the reaction, the 384-well plate was centrifuged at 1000 rpm for 30 seconds, vortexed for mixing, and incubated at room temperature for the required time. 30 μL of the termination solution was added to stop the kinase reaction, the plate was centrifuged at 1000 rpm for 30 seconds, and vortexed for mixing. The conversion rate was measured using the Caliper EZ Reader.
Data Analysis: the inhibition rate was calculated as follows:
% Inhibition=(Conversion %_max−conversion %_sample)÷(Conversion %_max−conversion %_min)×100
Conversion %_sample is the conversion rate reading for the sample; Conversion %_min is the average value of the negative control wells, representing the conversion rate for wells without enzyme activity: Conversion %_max is the average value of the positive control wells, representing the conversion rate for wells without compound inhibition. A dose-response curve was fitted using the log concentration of the compound as the X-axis and the percentage inhibition as the Y-axis. The log(inhibitor) vs. response-variable slope of the GraphPad Prism 5 software was used to fit the dose-response curve, and the IC50 value for each compound was obtained. The calculation formula is:
Y=Bottom+(Top−Bottom)/(1+10^((Log IC50−X)*HillSlope)).
wherein X represents the concentration of the compound to be tested; Y represents the inhibition rate at the concentration X: Top refers to the maximum response: Bottom refers to the baseline response; HillSlope refers to the slope of the curve (i.e., the gradient).

[2] = tested on: Ba/F3-TPM3-NTRK1-G667C cells; experiment: Growth inhibition of Ba/F3-TPM3-NTRK1-G667C cells (Cell Titer-Glo); type: cell-based; conditions: 72 hours, CTG; read-out: inhibitory activity IC50 Ba/F3-TPM3-NTRK1-G667C
Experimental: Then the solutions were subjected to a gradient dilution with DMSO: a clean, sterile V-bottom 96-well microplate was placed in the biological safety cabinet. First, 4 μL of DMSO was added to well B2 and 10 μL of DMSO was added to wells B3-B11 respectively; Next, 6 μL of the 10 mM solution was added to well B2. The microplate was pipetted up and down 10 times for mixing. […] Mixing was performed by pipetting up and down 10 times. The solution was diluted in order until well B10. only DMSO was added to well B11 (no compound).
6× Compound Solution Preparation (6-fold dilution, × represents dilution factor): (Initial final concentration: 10 μM), a clean, sterile V-bottom 96-well microplate was placed in the biological safety cabinet. 99 μL of cell culture medium was added to each well from B2 to G11. By using a 12-channel pipettor, 1 μL of the compound solution prepared in the previous step was added into the corresponding wells. The solutions were pipetted up and down 10 times to mix the solutions. The highest concentration of compound in this step was 60 μM.
Treatment of Cells: the above-prepared cell culture plate was taken out of the incubator. 20 μL of compound solution from each well was added to the corresponding cell culture wells. The lowest pipetting speed was used and touching the bottom of the plate was avoided. The culture plate was gently shaked to mix the compound solution, then the plate was returned to the incubator for further culture for 72 hours.
The highest treatment concentration of the compound was 10 μM. After 72 hours of treatment, the Cell Titer-Glo (CTG) assay was performed. First, the cell culture plate was removed from the CO2 incubator and allowed to stand at room temperature for 30 minutes to ensure uniform temperature of the plate. The pre-prepared Cell Titer-Glo reagent (following the manufacturer's instructions) was taken and allowed to stand at room temperature to thaw. 60 μL of Cell Titer-Glo reagent was added to each well containing cells. The cells were incubated on a horizontal shaker in a dark place at 225 rpm for 1 hour at room temperature. Then, a Tecan Spark microplate reader was used to read the plate using chemiluminescence according to the manufacturer's instructions.

Sequence of TRKA^WT kinase (P04629 33-796): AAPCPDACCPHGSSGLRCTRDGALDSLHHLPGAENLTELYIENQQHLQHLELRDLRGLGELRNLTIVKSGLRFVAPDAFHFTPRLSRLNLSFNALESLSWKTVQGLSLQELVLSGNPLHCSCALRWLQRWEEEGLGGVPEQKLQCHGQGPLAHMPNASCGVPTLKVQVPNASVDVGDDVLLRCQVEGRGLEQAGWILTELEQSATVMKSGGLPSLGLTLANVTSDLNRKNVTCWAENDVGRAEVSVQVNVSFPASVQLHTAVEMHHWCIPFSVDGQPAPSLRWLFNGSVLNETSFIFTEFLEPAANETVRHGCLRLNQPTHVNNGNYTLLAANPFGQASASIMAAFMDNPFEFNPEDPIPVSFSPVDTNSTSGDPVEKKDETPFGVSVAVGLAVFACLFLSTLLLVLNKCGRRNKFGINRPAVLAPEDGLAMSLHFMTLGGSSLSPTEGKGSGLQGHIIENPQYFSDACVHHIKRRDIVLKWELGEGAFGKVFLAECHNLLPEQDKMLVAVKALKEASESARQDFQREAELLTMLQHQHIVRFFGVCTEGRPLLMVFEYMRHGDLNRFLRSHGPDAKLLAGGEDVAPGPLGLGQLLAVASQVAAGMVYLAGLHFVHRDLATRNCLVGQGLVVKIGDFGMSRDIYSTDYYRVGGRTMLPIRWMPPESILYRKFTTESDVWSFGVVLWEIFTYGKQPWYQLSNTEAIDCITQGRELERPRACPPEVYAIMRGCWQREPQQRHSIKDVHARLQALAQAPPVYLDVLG

C[C@@H]1Nc2ccc3ncc(n3n2)-c2cc(ccn2)CCOc2ccccc21 [Example I-29, (4S,E)-4-methyl-6-oxa-3-aza-2(3,6)-imidazo [1,2-b]pyridazina-1(2,4)-pyridina-5(1,2)-benzenacyclooctaphane]
IC50 [1]: 4.9 nM

C[C@@H]1Nc2ccc3ncc(n3n2)-c2cc(ccn2)COc2ncccc21 [Example I-21, (6S,E)-6-methyl-4-oxa-7-aza-1(3,6)-imidazo[1,2-b]pyridazina-2(2,4), 5(2,3)-dipyridinacycloheptaphane]
IC50 [1]: 6.1 nM

C[C@@H]1Nc2ccc3ncc(n3n2)-c2cc(ncn2)COc2ccccc21 [Example I-27, (6S,E)-6-methyl-4-oxa-7-aza-1(3,6)-imidazo[1,2-b]pyridazina-2(4,6)-pyrimidina-5(1,2)-benzenacycloheptaphane]
IC50 [1]: 3.7 nM

C[C@@H]1Nc2ccc3ncc(n3n2)-c2cc(ccn2)COc2ccc(F)cc21 [Example I-15, (S)-(E)-5′-fluoro-6-methyl-4-oxa-7-aza-1(3,6)-imidazo[1,2-b]pyridazina-2(2,4)-pyridina-5(1,2)-benzenacycloheptaphane]
IC50 [1]: 4.8 nM

(S)-(E)-5^5-fluoro-6-methyl-3-oxa-7-aza-1(3,6)-imidazo[1,2-b]pyridazina-2(2,4), 5(2,3)-dipyridinacycloheptaphane [Example I-25]
IC50 [1]: 5.1 nM

C[C@@H]1Nc2ccc3ncc(n3n2)-c2cc(ccn2)OCc2ccc(F)cc21 [Example I-31, (S)-(E)-5^4-fluoro-6-methyl-3-oxa-7-aza-1(3,6)-imidazo[1,2-b]pyridazina-2(2,4)-pyridina-5(1,2)-benzenacycloheptaphane]
IC50 [1]: 5.7 nM

(R)-(E)-4-methyl-6-oxa-3-aza-2(3,6)-imidazo[1,2-b]pyridazina-1(4,6)-pyrimidina-5(1,2)-benzenacyclooctaphane [Example I-33]
IC50 [1]: 5.9 nM

C[C@H]1Nc2ccc3ncc(n3n2)-c2cc(ncn2)COc2ccc(F)cc21 [Example I-78, (6R,E)-5^4-fluoro-6-methyl-4-oxa-7-aza-1(3,6)-imidazo[1,2-b]pyridazina-2(4,6)-pyrimidina-5(1,2)-benzenacycloheptaphane]
IC50 [2]: < 100 nM

C[C@@H]1Cc2ccnc(c2)-c2cnc3ccc(nn23)N[C@H](C)c2cc(F)ccc2O1 [Example I-34, (4R,7R,E)-5^5-fluoro-4,7-dimethyl-6-oxa-3-aza-2(3,6)-imidazo[1,2-b]pyridazina-1(2,4)-pyridina-5(1,2)-benzenacyclooctaphane]
IC50 [2]: < 100 nM

Fc1ccc2c(c1)[C@H]1CCCN1c1ccc3ncc(n3n1)-c1cc(cnn1)CCO2 [Example I-91, (3^2R,E)-4^5-fluoro-5-oxa-2(3,6)-imidazo[1,2-b]pyridazina-1(3,5)-pyridazina-3(1,2)-pyrrolidina-4(1,2)-benzenacycloheptaphane]
IC50 [2]: < 100 nM

Fc1cnc2c(c1)[C@H]1CCCN1c1ccc3ncc(n3n1)-c1cc(ncn1)CO2 [Example I-59, (14bR,E)-13-fluoro-14b,15,16,17-tetrahydro-9H-1,19-etheno-4,8-(metheno)imidazo[5,1-h]pyrido[3,2-n]pyrrolo[1,2-l][1]oxa[4,6,9,10,12]pentaazacyclopentadecine]
IC50 [2]: < 100 nM

C[C@@H]1Cc2ccnc(c2)-c2cnc3ccc(nn23)N[C@H](C)c2cc(F)cnc2O1 [Example I-36, (4R,7R,E)-5^5-fluoro-4,7-dimethyl-6-oxa-3-aza-2(3,6)-imidazo[1,2-b]pyridazina-1(2,4), 5(3,2)-dipyridinacyclooctaphane]
IC50 [2]: < 100 nM

Fc1ccc2c(c1)[C@H]1CCCN1c1ccc3ncc(n3n1)-c1cc(ccn1)[C@@H]1CCC[C@H]1O2 [Example I-46, (8aS,11aR,16bR,E)-15-fluoro-8a,10,11,11a,16b,17,18,19-octahydro-9H-1,21-etheno-4,8-(metheno)benzo[b]cyclopenta[o]imidazo[1,5-h]pyrrolo[2,1-d][1]oxa[5,7,8,11]tetraazacyclohexadecine]
IC50 [2]: < 100 nM

C[C@@H]1Nc2ccc3ncc(n3n2)-c2cc(ccn2)COc2ccccc21 [Example I-19, (S)-(E)-6-methyl-4-oxa-7-aza-1(3,6)-imidazo[1,2-b]pyridazine-2(2,4)-pyridina-5(1,2)-benzenacycloheptaphane]
IC50 [1]: 5.7 nM

Fc1cnc2c(c1)[C@H]1CCCN1c1ccc3ncc(n3n1)-c1cc(cnn1)CCO2 [Example I-93, (3^2R,E)-4^5-fluoro-5-oxa-2(3,6)-imidazo[1,2-b]pyridazina-1(3,5)-pyridazina-4(3,2)-pyridina-3(1,2)-pyrrolidinacycloheptaphane]
IC50 [2]: < 100 nM

Fc1cnc2c(c1)[C@H]1CCCN1c1ccc3ncc(n3n1)-c1cc(ccn1)CO2 [Example I-51, (14bR,E)-13-fluoro-14b,15,16,17-tetrahydro-9H-1,19-etheno-4,8-(metheno)imidazo[1,5-h]pyrido[2,3-b]pyrrolo[2,1-d][1]oxa[5,7,8,11]tetraazacyclopentadecine]
IC50 [2]: < 100 nM

Fc1cnc2c(c1)[C@H]1CCCN1c1ccc3ncc(n3n1)-c1nccc(n1)CCO2 [Example I-87, (3^2R,E)-4^5-fluoro-5-oxa-2(3,6)-imidazo[1,2-b]pyridazina-1(2,4)-pyrimidina-4(3,2)-pyridina-3(1,2)-pyrrolidinacycloheptaphane]
IC50 [2]: < 100 nM

Fc1ccc2c(c1)C1(CC1)Nc1ccc3ncc(n3n1)-c1cc(ccn1)CO2 [Example I-47, (E)-4′-fluorospiro[cyclopropane-1,6′-4-oxa-7-aza-1(3,6)-imidazo[1,2-b]pyridazina-2(2,4)-pyridina-5(1,2)-benzenacycloheptaphane]]
IC50 [2]: < 100 nM

C[C@H]1Nc2ccc3ncc(n3n2)-c2nccc(n2)COc2ccc(F)cc21 [Example I-80, (6R,E)-5^4-fluoro-6-methyl-4-oxa-7-aza-1(3,6)-imidazo[1,2-b]pyridazina-2(2,4)-pyrimidina-5(1,2)-benzenacycloheptaphane]
IC50 [2]: < 100 nM

C[C@@H]1Cc2ccnc(c2)-c2cnc3ccc(nn23)N2CCC[C@@H]2c2cc(F)ccc2O1 [Example I-37, (3^2R,6R,E)-4^5-fluoro-6-methyl-5-oxa-2(3,6)-imidazo[1,2-b]pyridazina-1(2,4)-pyridina-3(1,2)-pyrrolidina-4(1,2)-benzenacycloheptaphane]
IC50 [2]: < 100 nM

Fc1ccc2c(c1)[C@H]1CCCN1c1ccc3ncc(n3n1)-c1cc(ccn1)[C@H]1CCC[C@H]1O2 [Example I-45, (8aR,11aR,16bR,E)-15-fluoro-8a,10,11,11a,16b,17,18,19-octahydro-9H-1,21-etheno-4,8-(metheno)benzo[b]cyclopenta[o]imidazo[1,5-h]pyrrolo[2,1-d][1]oxa[5,7,8,11]tetraazacyclohexadecine]
IC50 [2]: < 100 nM

C[C@@H]1Nc2ccc3ncc(n3n2)-c2cc(ccn2)COc2c(F)cc(F)cc21 [Example I-17, (S)-(E)-5′,5′-difluoro-6-methyl-4-oxa-7-aza-1(3,6)-imidazo[1,2-b]pyridazine-2(2,4)-pyridina-5(1,2)-benzenacycloheptaphane]
IC50 [1]: 5.2 nM

C[C@@H]1Nc2ccc3ncc(n3n2)-c2cncc(c2)COc2ccc(F)cc21 [Example I-23, (S)-(E)-5^4-fluoro-6-methyl-4-oxa-7-aza-1(3,6)-imidazo[1,2-b]pyridazina-2(3,5)-pyridina-5(1,2)-benzenacycloheptaphane]
IC50 [1]: 4.8 nM
